The results in this text go back to article PMC6271717, “Chemical Composition, Biological and Cytotoxic Activities of Plant Extracts and Compounds Isolated from Ferula lutea” (Molecules, 2014).

The subject of test [1] is Candida parapsilosis ATCC 22019. Description: Anticandida activity, broth microdilution. The class given is cell-based. Conditions: Lodderomyces parapsilosis, ATCC22019; positive control. Background: In broth dilution the organism is exposed to a series of concentrations in liquid medium.
Description: (§1) The test microorganisms included the following Gram-positive bacteria: Staphylococcus aureus ATCC 25923, Enterococcus faecalis ATCC 29212; Gram-negative bacteria: Escherichia coli ATCC 25922 and Pseudomonas aeruginosa ATCC 27853 and four Candida yeasts: Candida albicans ATCC 90028, C. glabrata ATCC 90030, C. kreusei ATCC 6258 and C. parapsilosis ATCC 22019).
(§2) The MIC values for the antibacterial and anticandidal screening were determined with the broth dilution method (microdilution using 96-well microplates) following the procedure described by Cintia et al. [35]. Briefly, all samples were prepared at a concentration of 10 mg/mL by dissolution of the extracts in 10% DMSO. The final concentrations of the plant samples tested ranged from 40 to 2 × 10^4 µg/mL. The MIC of each sample was defined as the lowest concentration of oil that inhibited either the bacterial or candidal growth, after incubation at 37 °C for 18 to 24 h. The MBC and the MFC were determined by subculture on blood agar at 37 °C for 18 to 24 h. Thymol and gentamicin or thymol and amphotericin B were used as positive controls against the bacterial or candidal strains, respectively. […] All tests were performed in triplicate.
In test [2] the test system is Candida kreseui ATCC 6258. Kind of test: Anticandida activity, broth microdilution. Particulars: ATCC6258, positive control. The class given is cell-based.
Description: as §2
Test [3] deals with Candida glabrata ATCC 90030. Description: Anticandida activity, broth microdilution. The class given is cell-based. Particulars: Nakaseomyces glabratus, ATCC90030; positive control.
Description: as §1, §2
In test [4] the test system is Candida albicans ATCC 90028. Kind of test: Anticandida activity, broth microdilution. Conditions: ATCC90028, positive control. The class given is cell-based.
Description: as §1, §2
The subject of test [5] is human chronic myelogenous leukaemia cell line K562. Description: Cytotoxic activity (MTT assay). Format: cell-based. Conditions: K562, 72 h. On the procedure: Cytotoxic activity of extracts against the human chronic myelogenous leukaemia cell line K562 was estimated by the 3-(4,5-dimethylthiazol-2-yl)-2,5-diphenyltetrazolium bromide (MTT) assay of Khlifi et al.. The cells were grown in RPMI- 1640 medium supplemented with 10% faetal calf serum (Gibco, Gaithersburg, MD, USA), air and 5% CO2. The resulting blue formazan product can be measured spectrophotometrically. The MTT colorimetric assay was performed in 96-well plates. […] human chronic myelogenous leukaemia K562 cells were seeded in a 96-well plate at a concentration of 10^4 cells/well and incubated at 37 °C overnight in a 5% CO2 enriched atmosphere. Cells in exponential growth phase were incubated at 37 °C for 72 h with each tested compound at concentrations ranging from 3.12 to 400 μg/mL. After that, the medium was removed and cells were treated with MTT solution (100 μL, 0.2 mg/mL in PBS) at 37 °C for 2 h. MTT solution was then discarded and DMSO (500 μL) was added to dissolve insoluble formazan crystals. Optical density was measured at 540 nm. Each extract concentration was tested in triplicate. Doxorubicin was used as positive control.

For test [6], the system named is Staphylococcus aureus ATCC 25923. Kind of test: Antibacterial activity, broth microdilution. Particulars: ATCC25923, positive control. The class given is cell-based.
Description: as §2
In test [7] the test system is Enterococcus faecalis ATCC 29212. Description: Antibacterial activity, broth microdilution. Format: cell-based. Conditions: ATCC29212, positive control.
Description: as §2
The test system of test [8] is Pseudomonas aeruginosa ATCC 27853. Kind of test: Antibacterial activity, broth microdilution. The class given is cell-based. Particulars: ATCC27853, positive control.
Description: as §1, §2
The test system of test [9] is Escherichia coli ATCC 25922. Description: Antibacterial activity, broth microdilution. Particulars: ATCC25922, positive control. The class given is cell-based.
Description: as §1, §2
Test [10] is described as follows: Antioxidant activity by ABTS assay. The procedure: ABTS was dissolved in water to a 7 mM concentration and the ABTS radical cation was produced by adding potassium persulfate to a final concentration of 2.45 mM [31]. The radical generation was completed in the dark at room temperature for 12 h. This solution was then diluted with methanol to adjust its absorbance at 734 nm to 0.706 ± 0.009. To determine the scavenging activity, 1 mL of diluted ABTS^+. solution was added to 1 mL of methanolic solutions of extract at different concentrations and the absorbance at 734 nm was measured 10 min after the initial mixing, using methanol as the blank. The percentage of inhibition was calculated by the equation: [(Acontrol − Asample)/Acontrol] × 100 (2) where Acontrol is the absorbance of the control reaction containing all reagents except the tested sample, and Asample is the absorbance of the test compound. Tests were carried out in triplicate. Ascorbic acid was used as the positive control. The IC50 was calculated using linear relation between the compound concentration and probability of the percentage of ABTS inhibition.

Test [11] in a line: Antioxidant activity by DPPH assay. The procedure:
Diluted methanol solutions of the samples at different concentrations (1 mL each) were mixed with 1 mL of a freshly prepared (80 µg/mL) methanol solution of DPPH. The resulted solution was incubated at 37 °C for 30 min after what the absorbance of the solution was measured at 517 nm. Lower absorbance of the reaction mixture indicates higher free radical scavenging activity. Tests were carried out in triplicate. Decrease in absorption induced by the tested sample was compared to that of the positive control ascorbic acid. The capability to scavenge the DPPH^.radical was calculated using the following equation: Inhibition ratio (DPPH^. scavenging effect) (%) = [(Acontrol − Asample) / Acontrol] × 100 (1)
The IC50 was calculated using the linear relation between the compound concentration and the probability of the percentage of DPPH inhibition.
For orientation: DPPH is a stable violet radical that fades when it is reduced.

Structures are written as SMILES. Converted amounts (≈) assume the structure as drawn.

One may read the MFC as the lowest tested concentration that kills the fungus rather than only halting it. As for `C[C@@H]1[C@H](O)[C@@H](C)/C=C/C=C/C=C/C=C/C=C/C=C/C=C/[C@H](O[C@@H]2O[C@H](C)[C@@H](O)[C@H](N)[C@@H]2O)C[C@@H]2O[C@](O)(C[C@@H](O)C[C@@H](O)[C@H](O)CC[C@@H](O)C[C@@H](O)CC(=O)O[C@H]1C)C[C@H](O)[C@H]2C(=O)O` [Amphotericin B], the MFC in test [1], in [2], in test [3] and in [4] was 0.5 µg/mL (≈ 0.541 µM) in each case.

Broadly, the IC50 is the concentration needed to halve the response being measured. Regarding `COc1cccc2c1C(=O)c1c(O)c3c(c(O)c1C2=O)C[C@@](O)(C(=O)CO)C[C@@H]3O[C@H]1C[C@H](N)[C@H](O)[C@H](C)O1` [Doxorubicin], the midpoint of inhibition in test [5], the IC50, lay at 0.1 µg/mL (≈ 0.184 µM).

The MBC is the lowest tested concentration that kills the bacteria rather than only halting them. `CNC(C)C1CCC(N)C(OC2C(N)CC(N)C(OC3OCC(C)(O)C(NC)C3O)C2O)O1` (stereo not shown) [Gentamecin, gentamicin]: the MBC worked out at 0.15 µg/mL (≈ 0.314 µM) in [6], 0.01 µg/mL (≈ 0.0209 µM) in test [7], 0.5 µg/mL (≈ 1.05 µM) in test [8] and 0.01 µg/mL (≈ 0.0209 µM) in [9].

As usually defined, the MIC is the smallest concentration in the dilution series that meets the test's criterion for growth inhibition. On to `Cc1ccc(C(C)C)c(O)c1` [Thymol], for which the MIC came to 0.2 µg/mL (≈ 1.33 µM) in [6]; 0.32 µg/mL (≈ 2.13 µM) in test [1]; 0.6 µg/mL (≈ 3.99 µM) in test [7]; 0.32 µg/mL (≈ 2.13 µM) in test [2]; 1 µg/mL (≈ 6.66 µM) in test [8]; 0.16 µg/mL (≈ 1.07 µM) in [3]. Besides, the MIC is 0.13 µg/mL (≈ 0.865 µM) in test [4] and 0.25 µg/mL (≈ 1.66 µM) in [9].

Turning to `O=C1O[C@H]([C@@H](O)CO)C(O)=C1O` [Vitamin C, L-ascorbic acid], in [10], the “ABTS+ Assay IC50” value was determined as 4.1 ± 0.1 µg/mL. Also, in test [11], the “DPPH Assay IC50” value was determined as 4.4 ± 0.1 µg/mL.
